Data as given in article PMC2410169, “N-hexanoyl-sphingomyelin potentiates in vitro doxorubicin cytotoxicity by enhancing its cellular influx” (British Journal of Cancer, 2004).
Like-named read-outs stand apart in the source and are kept apart here. Values belong to the compound of their own block, whether it stands above or below them.

Tests used:
BAEC [1] = type: cell-based, bovine; conditions: for Effect on doxorubicin uptake (in words): assay as for C6-SM, Table 1
Description: (§1) For intracellular doxorubicin measurements, cells were cultured in flat-bottom 96-well plates. At confluence, cells were changed to a serum-free medium and exposed to 50 μM doxorubicin during 60 min (unless indicated otherwise). After washing with ice-cold PBS, cells were lysed in 1% (w v^−1) Triton X-100 in water. Native fluorescence intensities were then measured by a Perkin-Elmer Victor Wallac II fluorescence microplate reader, using λex 485 nm and λem 535 nm filters. Additional probes and drugs that were tested for cellular uptake during 60 min incubations, either in the absence or presence of lipid, were hydrazide-AF488 (35 μM, λex 485 nm, λem 535 nm), sulphorodamine-101 (400 μM, λex 355 nm, λem 620 nm), propidium iodide (300 μM, λex 355 nm, λem 535 nm), o-phtaldialdehyde (1 mM, λex 485 nm, λem 535 nm), topotecan (30 μM, λex 355 nm, λem 535 nm), epirubicin (50 μM, λex 485 nm, λem 535 nm), bisbenzimidine (10 μM, λex 355 nm, λem 460 nm), camptothecin (30 μM, λex 355 nm, λem 460 nm), daunorubicin (25 μM, λex 485 nm, λem 535 nm) and idarubicin (20 μM, λex 485 nm, λem 535 nm).

[2] = test system: A431 (epidermoid carcinoma); experiment: Cellular doxorubicin accumulation, fluorimetry of cell lysates; type: cell-based, human; conditions: 50 μM doxorubicin, 60 min
Description: as §1

[3] = test system: KB (oesophagal carcinoma); experiment: as above; type: cell-based, human; conditions: 50 μM doxorubicin, 60 min
Description: as §1

[4] = test system: MCF-7 (mammary adenocarcinoma); experiment: as above; type: cell-based, human; conditions: 50 μM doxorubicin, 60 min
Description: as §1

BAEC [5] = test system: BAEC
Description: (§4) For viability assessment, cells were cultured in flat-bottom 96-well plates. After experimental treatments, 100 μg of the mitochondrial dehydrogenase substrate MTT was added to each well ([Carmichael et al, 1987]). Cells were then incubated for 60 min at 37°C. After centrifugation (3000 rpm, 10 min) supernatants were removed. The precipitated blue formazan products were then dissolved in 100 μl DMSO and absorbencies were read in a Bio-Tek Instruments EL 340 photospectrometric microplate reader at 540 nm. Background absorbencies were subtracted and values from untreated control cells were set at 100% viability.
(§5) After washing away remaining extracellular drug and lipid, cells were cultured for another 48 h. Viability was then assessed by the MTT assay, which relies on the fact that only mitochondria of viable cells have the capacity to convert the MTT substrate ([Carmichael et al, 1987]).

[6] = test system: control renal fibroblasts; experiment: Cellular doxorubicin accumulation in control kidney fibroblasts; type: cell-based, mice; conditions: Table 2, C6-SM 10 μM, 60 min
Description: (§2) The following cell types were cultured in Dulbecco's modified Eagle's medium (DMEM) containing 10% (v v^−1) foetal calf serum: primary bovine aortic endothelial cells (BAEC; passage 14–19), kindly provided by Dr A Haimovitz-Friedman (Memorial Sloan-Kettering Cancer Center, New York City NY, USA); MCF-7, KB and A431 carcinoma cells, purchased from the American Type Culture Collection (Manassas VA, USA); SV40 large-T antigen-immortalised kidney fibroblasts from Mrp1/Mdr1a/Mdr1b triple knockout mice and control renal fibroblasts ([Wijnholds et al, 2000]; kindly provided by Dr AH Schinkel, The Netherlands Cancer Institute, Amsterdam). […] All culture media were supplemented with 100 U ml^−1 penicillin, 100 μg ml^−1 streptomycin and 4 mM L-glutamine. For intracellular doxorubicin measurements, cells were cultured in flat-bottom 96-well plates. […] After washing with ice-cold PBS, cells were lysed in 1% (w v^−1) Triton X-100 in water. Native fluorescence intensities were then measured by a Perkin-Elmer Victor Wallac II fluorescence microplate reader, using λex 485 nm and λem 535 nm filters.

BAEC [7] = experiment: Plasma membrane integrity: uptake of fluid phase marker hydrazide-AF488; type: cell-based, bovine; conditions: 10 μM C6-SM
Description: Confluent and serum-free BAEC were incubated for 120 min in the presence of C6-SM and 175 μM of the membrane impermeant fluid phase marker hydrazide-AF488. After washing, cells were lysed in PBS containing 1% (w v^−1) Triton X-100 and fluorescence was measured at λex 485 nm and λem 535 nm. […] All data were corrected for protein contents, as determined with the BCA assay ([Smith et al, 1985]).

A431 cells = experiment: Cell viability, MTT assay; type: cell-based, human; conditions: for EC50: Homo sapiens, 60 min exposure, 48 h further culture, read-out: Doxorubicin EC50
Description: After centrifugation (3000 rpm, 10 min) supernatants were removed.

[8] = test system: kidney fibroblasts from Mrp1/Mdr1a/Mdr1b triple knockout mice; experiment: Cellular doxorubicin accumulation in ABC-transporter knockout fibroblasts; type: cell-based
Description: as §2

BAEC [9] = experiment: Raft-mediated endocytosis: AF488-CTB uptake; type: cell-based, bovine; conditions: 10 μM C6-SM, 120 min
Description: (§3) To monitor clathrin- and raft-mediated endocytic activity, confluent BAEC were allowed to take up AF488-transferrin (150 μg ml^−1) or AF488-CTB (75 μg ml^−1), respectively. Incubations were performed under serum-free conditions in the presence of 10 μM C6-SM during 120 min. Cells were then washed and lysed in PBS containing 1% (v v^−1) Triton X-100. Fluorescence was then measured at λex 485 nm and λem 535 nm.

BAEC [10] = experiment: Clathrin-mediated endocytosis: AF488-transferrin uptake; type: cell-based, bovine; conditions: 10 μM C6-SM, 120 min
Description: as §3

BAEC [11] = experiment: cells; conditions: Bos taurus
Description: as §4, §5

BAEC [12] = experiment: Cellular uptake of fluorescent drugs and probes with or without C6-SM; type: cell-based, bovine; conditions: 10 μM C6-SM, 60 min
Description: as §1

[13] = Lipophilicity: 1-octanol/water partitioning; type: physicochemical; conditions: 1-octanol/water partition ratio
Description: Partitioning of 10–50 μM drug or probe was monitored in a two-phase system consisting of 1 ml 1-octanol and 1 ml water. After addition of the compound, tubes were vortexed and centrifuged (3000 rpm, 5 min, 20°C). Aliquots of both the organic and the aqueous phases were taken for fluorimetric quantification, as described under Cellular drug accumulation. As a measure of lipophilicity, the 1-octanol/water partitioning ratio was calculated for each compound and expressed on a log scale ([Washington et al, 2001]).

[14] = 10 μM lipid analogue with 50 μM doxorubicin, 60 min, control = no lipid, no ethanol, n=3

Compound: CCCCCCCCCC(=O)NC(CN1CCOCC1)C(O)c1ccccc1 (racemic) [PPMP]
Doxorubicin (% of control±s.d.) (BAEC [1]; Table 4, PPMP 30 μM, 96 h pretreatment, no C6-SM): 166.5±22.5 % of control

Compound: CCCCCCCCCCCCC/C=C/C(O)C(COP(=O)([O-])OCC[N+](C)(C)C)NC(C)=O (stereo not drawn) [C2-sphingomyelin, N-acetyl-sphingomyelin]
Doxorubicin (% of control±s.d.) (BAEC [1]; [14]): 129.6±19.6 % of control
Effect on doxorubicin uptake (in words) (BAEC [1]): moderate effect

Compound: CCCCCCCCCCCCCC=CC(O)C(COP(=O)([O-])OCC[N+](C)(C)C)NC(=O)CCCCC (stereo not drawn) [C6-SM, N-hexanoyl-sphingomyelin]
Concentration-dependent C6-SM effect on doxorubicin accumulation compared with BAEC [2]: Comparable results
Concentration-dependent C6-SM effect on doxorubicin accumulation compared with BAEC [3]: Comparable results
Concentration-dependent C6-SM effect on doxorubicin accumulation compared with BAEC [4]: Comparable results
C6-SM concentration at which the plateau in doxorubicin-uptake enhancement and cytotoxicity is reached (BAEC [1]): about 8 μM
Enhanced doxorubicin uptake after washing away C6-SM not taken up by the cells (BAEC [1]): remained
Increase of intracellular doxorubicin over control levels (BAEC [1]; 10 μM C6-SM, 50 μM doxorubicin, incubation periods of 15–60 min): up to 300%
Doxorubicin (% of control±s.d.) (BAEC [1]; [14]): 328.3±24.4 % of control
Lipid concentration giving a significant increase in drug uptake (BAEC [1]; 50 μM doxorubicin, 60 min): 2 µM
Doxorubicin (% of control±s.d.) (BAEC [1]; Table 2, C6-SM 10 μM + ATP depletion): 410.9±157.0 % of control
Doxorubicin (% of control±s.d.) (BAEC [1]; Table 2, C6-SM 10 μM + MK571 12.5 μM): 323.3±23.0 % of control
Doxorubicin (% of control±s.d.) (BAEC [1]; Table 2, C6-SM 10 μM + PSC833 5 μM): 278.1±40.7 % of control
Doxorubicin (% of control±s.d.) (BAEC [1]; Table 2, C6-SM 10 μM alone, 60 min, n=3): 369.0±113.0 % of control
Doxorubicin (% of control±s.d.) (BAEC [1]; Table 4, C6-SM 10 μM after CDX 10 mM, 30 min): 264.7±72.1 % of control
Doxorubicin (% of control±s.d.) (BAEC [1]; Table 4, C6-SM 10 μM after PPMP 30 μM, 96 h): 340.7±78.6 % of control
Doxorubicin (% of control±s.d.) (BAEC [1]; Table 4, C6-SM 10 μM after bSMase 200 mU ml^−1, 2 h): 386.2±74.7 % of control
Doxorubicin (% of control±s.d.) (BAEC [1]; Table 4, C6-SM 10 μM, no pretreatment, n=3): 353.3±62.6 % of control
Maximum increase in doxorubicin uptake over control values (BAEC [1]; at 6 μM C6-SM, 50 μM doxorubicin, 60 min): 300%
C6-SM-stimulated doxorubicin uptake under conditions that block endocytosis (BAEC [1]; cells at 4°C or depleted for ATP (sodium azide and deoxyglucose)): remained unaffected
Active concentrations (BAEC [1]; doxorubicin uptake enhancement): 2 to 6 µM
Drug uptake-enhancing effect after removal of membrane-inserted C6-SM (BAEC [1]; hydrolysis by exogenous bSMase or BSA back-exchange, not shown): strongly diminished
Enhanced uptake of doxorubicin (BAEC [1]; low micromolar amounts of lipid (abstract)): up to 300%
Toxicity of C6-SM itself (BAEC [5]): virtually nontoxic
Increase in doxorubicin sensitivity (BAEC [5]; BAEC, 10 μM C6-SM vs none): seven-fold increase in sensitivity
Doxorubicin (% of control±s.d.) [6]: 331.8±50.2 % of control
Hydrazide-AF488 uptake compared to 100% control uptake (BAEC [7]): 97.4±18.2%
Increase in drug sensitivity (A431 cells; A431, with C6-SM vs none): 14 fold
Increase compared to doxorubicin uptake in the absence of the lipid analogue ([8]; like in normal fibroblasts): three- to four-fold increase
CTB uptake compared to 100% uptake under control conditions (BAEC [9]): 80±23%
Transferrin uptake compared to 100% uptake under control conditions (BAEC [10]): 67±36%

Compound: CCCCCCCCCCCCC/C=C/[C@@H](O)[C@H](CO)NC(=O)CCCCC [C6-ceramide]
Doxorubicin (% of control±s.d.) (BAEC [1]; [14]): 105.6±6.5 % of control
Effect on doxorubicin uptake (in words) (BAEC [1]): little or no effect

Compound: CCCCCC(=O)OCC(COP(=O)([O-])OCC[N+](C)(C)C)OC(=O)CCCCC (stereo not drawn) [C6-phosphatidylcholine, dihexanoyl-phosphatidylcholine]
Doxorubicin (% of control±s.d.) (BAEC [1]; [14]): 101.0±28.2 % of control
Effect on doxorubicin uptake (in words) (BAEC [1]): completely without effect

Compound: CCCCCCCCCCCCC/C=C/[C@@H](O)[C@H](COP(=O)(O)O)NC(=O)CCCCCCC [C8-ceramide 1-phosphate, C8-ceramide-1-phosphate]
Doxorubicin (% of control±s.d.) (BAEC [1]; [14]): 116.5±20.6 % of control
Effect on doxorubicin uptake (in words) (BAEC [1]): little or no effect

Compound: COc1cccc2c1C(=O)c1c(O)c3c(c(O)c1C2=O)C[C@@](O)(C(=O)CO)C[C@@H]3O[C@H]1C[C@H](N)[C@H](O)[C@H](C)O1 [Doxorubicin, doxorubicin]
Doxorubicin (% of control±s.d.) (BAEC [1]; Table 2, ATP depletion (2-deoxy-D-glucose + sodium azide, 90 min), no C6-SM): 108.2±46.7 % of control
EC50 (BAEC [11]; read-out: Doxorubicin EC50 for BAEC toxicity, absence of C6-SM, 60 min exposure, 48 h further culture): 4000 nM
EC50 (BAEC [11]; read-out: Doxorubicin EC50 for BAEC toxicity, with 10 μM C6-SM, 60 min exposure, 48 h further culture): 600 nM
EC50 (A431 cells; A-431, A431, with C6-SM): 130 nM
EC50 (A431 cells; A-431, A431, without C6-SM): 1800 nM
Doxorubicin (% of control±s.d.) ([8]; Table 2, no C6-SM, relative to control fibroblasts): 101.7±14.3 % of control

Compound: CN(C)C(=O)CCSC(SCCC(=O)O)c1cccc(/C=C/c2ccc3ccc(Cl)cc3n2)c1 (stereo not drawn) [MK571]
Doxorubicin (% of control±s.d.) (BAEC [1]; Table 2, MK571 12.5 μM, no C6-SM): 103.5±30.2 % of control

Compound: C/C=C/C[C@@H](C)C(=O)[C@H]1C(=O)N[C@@H](C(C)C)C(=O)N(C)CC(=O)N(C)[C@@H](CC(C)C)C(=O)N[C@@H](C(C)C)C(=O)N(C)[C@@H](CC(C)C)C(=O)N[C@@H](C)C(=O)N[C@H](C)C(=O)N(C)[C@@H](CC(C)C)C(=O)N(C)[C@@H](CC(C)C)C(=O)N(C)[C@@H](C(C)C)C(=O)N1C [PSC833]
Doxorubicin (% of control±s.d.) (BAEC [1]; Table 2, PSC833 5 μM, no C6-SM): 76.0±15.6 % of control

Compound: CCCCCCCCCCCCC/C=C/[C@@H](O)[C@@H](N)COP(=O)([O-])OCC[N+](C)(C)C [Sphingosinephosphorylcholine, sphingosylphosphorylcholine]
Doxorubicin (% of control±s.d.) (BAEC [1]; [14]): 143.2±10.0 % of control
Effect on doxorubicin uptake (in words) (BAEC [1]): moderate effect

Compound: CC[C@@]1(O)C(=O)OCc2c1cc1n(c2=O)Cc2cc3ccccc3nc2-1 [camptothecin]
Sensitivity towards C6-SM uptake enhancement (BAEC [12]): mostly insensitive to C6-SM

Compound: COc1cccc2c1C(=O)c1c(O)c3c(c(O)c1C2=O)C[C@@](O)(C(C)=O)C[C@@H]3O[C@H]1C[C@H](N)[C@H](O)[C@H](C)O1 [daunorubicin]
Lipophilicity compared with doxorubicin [13]: significantly higher
Sensitivity towards C6-SM uptake enhancement (BAEC [12]): mostly insensitive to C6-SM

Compound: COc1cccc2c1C(=O)c1c(O)c3c(c(O)c1C2=O)C[C@@](O)(C(=O)CO)C[C@@H]3O[C@H]1C[C@H](N)[C@@H](O)[C@H](C)O1 [epirubicin]
Sensitivity towards C6-SM uptake enhancement (BAEC [12]): C6-SM sensitive

Lipophilicity compared with doxorubicin [13]: significantly higher
Compound: CC(=O)[C@]1(O)Cc2c(O)c3c(c(O)c2[C@@H](O[C@H]2C[C@H](N)[C@H](O)[C@H](C)O2)C1)C(=O)c1ccccc1C3=O [idarubicin]
Sensitivity towards C6-SM uptake enhancement (BAEC [12]): mostly insensitive to C6-SM

Compound: CC[C@@]1(O)C(=O)OCc2c1cc1n(c2=O)Cc2cc3c(CN(C)C)c(O)ccc3nc2-1 [topotecan]
Sensitivity towards C6-SM uptake enhancement (BAEC [12]): C6-SM sensitive

Compound: methyl-β-cyclodextrin [CDX]
Doxorubicin (% of control±s.d.) (BAEC [1]; Table 4, CDX 10 mM, 30 min pretreatment, no C6-SM): 113.0±28.1 % of control

Compound: sphingomyelin [Endogenous SM]
Effect on doxorubicin uptake (in words) (BAEC [1]): does not work
